Results from patent US6479531B1, “Gastrin and cholecystokinin receptor ligands” (James Black Foundation Limited, priority 1998, dated 2002).

Target: T1, gastrin receptor (Rattus norvegicus, UniProt P30553)
T1 construct: The stomach was excised and flushed with ca. 1 ml of unbuffered physiological saline solution; from tissue; host or cells: isolated whole stomach of immature rats (ca. 21 days old)
T1 sequence (P30553 1-452): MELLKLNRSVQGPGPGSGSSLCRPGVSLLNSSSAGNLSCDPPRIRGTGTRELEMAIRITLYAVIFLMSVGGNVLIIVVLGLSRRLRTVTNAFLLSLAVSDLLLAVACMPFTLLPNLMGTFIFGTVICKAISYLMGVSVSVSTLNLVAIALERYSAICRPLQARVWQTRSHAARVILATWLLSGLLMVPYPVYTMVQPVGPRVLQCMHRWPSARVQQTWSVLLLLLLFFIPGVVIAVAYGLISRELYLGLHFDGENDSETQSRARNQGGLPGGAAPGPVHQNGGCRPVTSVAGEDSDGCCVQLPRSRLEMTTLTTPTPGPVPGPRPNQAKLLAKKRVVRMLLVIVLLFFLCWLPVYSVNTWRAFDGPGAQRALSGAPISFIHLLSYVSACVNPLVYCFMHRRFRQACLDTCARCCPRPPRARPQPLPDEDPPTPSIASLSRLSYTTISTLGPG
Experiment: gastrin antagonist activity in immature rat stomach assay (pentagastrin dose-response, acid secretion)
Details: isolated immature rat stomach, cumulative pentagastrin dose-response curves; for Kb: read-out: Gastrin pKb (converted)
Experimental: The compounds of the examples were also tested for gastrin antagonist activity in an immature rat stomach assay. The procedure was as follows:
The oesophagus of immature rats (33-50 g, ca. 21 days old) was ligated at the level of the cardiac sphincter and the duodenal sphincter was cannulated. The stomach was excised and flushed with ca. 1 ml of unbuffered physiological saline solution. The fundus was punctured and cannulated. A further 4-5 ml of unbuffered solution was flushed through the stomach to ensure the preparation was not leaking. The stomach was lowered into a jacketed organ bath containing 40 ml of buffered solution containing 3×10^−8 M 5-methylfurmethide, maintained at 37° and gassed vigorously with 95% O2/5% CO2. The stomach was continuously perfused at a rate of 1 ml min^−1 with unbuffered solution gassed with 100% O2 with the perfusate passing over an internally referenced pH-electrode fixed 12 cm above the stomach.
After 120 min of stabilisation the drugs were added directly to the serosal solution in the organ bath and after a further 60 min cumulative pentagastrin dose-response curves were started. Changes in acid secretion were monitored and the curves analysed according to Black et al., Br. J. Pharmacol., 1985, 86, 581.

| Compound | Kb | Gastrin pKb |
| --- | --- | --- |
| 5-{[5-(2-Adamantan-1-yl-ethyl)-2-[1-(2-methyl-propyl)-piperidin-2-yl])-1H-imidazole-4-carbonyl]-amino}-2-methyl-benzoic Acid [Example 142] |  | 6.75 |
| CN1CCCCC1c1nc(C(=O)Nc2cccc(C(=O)O)c2)c(CCC23CC4CC(CC(C4)C2)C3)[nH]1 (racemic) [Example 139, (±)-3-{[5-(2-Adamantan-1-yl-ethyl)-2-(1-methyl-piperidin-2-yl)-1H-imidazole-4-carbonyl]-amino}-benzoic Acid] | 15.8 nM |  |
| O=C(O)Cc1cccc(NC(=O)c2nc(C3CC4CCC3C4)[nH]c2CCC23CC4CC(CC(C4)C2)C3)c1 (racemic) [Example 210, (±)-exo-(3-{[5-(2-Adamantan-1-yl-ethyl)-2-bicyclo[2.2.1]hept-2-yl-1H-imidazole-4-carbonyl]-amino}-phenyl)-acetic Acid] |  | 6.89 |
| O=C(O)c1cccc(NC(=O)c2nc(C3CC4C=CC3C4)[nH]c2COC23CC4CC(CC(C4)C2)C3)c1 (racemic) [Example 234, (±)-endo-3-{[5-(Adamantan-1-yloxymethyl)-2-bicyclo[2.2.1]hept-5-en-2-yl-1H-imidazole-4-carbonyl]-amino}-benzoic Acid] |  | 8.71 |
| O=C(Nc1cccc(CC(O)C(=O)O)c1)c1nc(C2CCCCC2)[nH]c1CCC12CC3CC(CC(C3)C1)C2 (racemic) [Example 260, (±)-(3-{[5-(2-Adamantan-1-yl-ethyl)-2-cyclohexyl-1H-imidazole-4-carbonyl]-amino}-phenyl)-2-hydroxy-propionic Acid] |  | 7.01 |
| Cc1ccc(NC(=O)c2nc(C3CCCCC3)[nH]c2CCC23CC4CC(CC(C4)C2)C3)cc1C(=O)O [Example 107] |  | 7.65 |
| Cc1cc(C)c(-c2nc(C(=O)Nc3ccc(F)c(C(=O)O)c3)c(CCC34CC5CC(CC(C5)C3)C4)[nH]2)c(C)c1 [Example 156, 5-{[5-(2-Adamantan-1-yl-ethyl)-2-(2,4,6-trimethyl-phenyl)-1H-imidazole-4-carbonyl]-amino}-2-fluoro-benzoic Acid] | 63.1 nM |  |
| Cc1cc(C)c(-c2nc(C(=O)Nc3cccc(CC(=O)O)c3)c(CCC34CC5CC(CC(C5)C3)C4)[nH]2)c(C)c1 [Example 157, (3-{[5-(2-Adamantan-1-yl-ethyl)-2-(2,4,6-trimethyl-phenyl)-1H-imidazole-4-carbonyl]-amino}-phenyl)-acetic Acid] | 219 nM |  |
| COc1cc(OC)c(-c2nc(C(=O)Nc3cccc(C(=O)O)c3)c(CCC34CC5CC(CC(C5)C3)C4)[nH]2)c(OC)c1 [Example 160, 3-{[5-(2-Adamantan-1-yl-ethyl)-2-(2,4,6-trimethoxy-phenyl)-1H-imidazole-4-carbonyl]-amino}-benzoic Acid] | 912 nM |  |
| O=C(O)c1cccc(NC(=O)c2nc(C3CCCCC3)[nH]c2CCC23CCC(CC2)CC3)c1 [Example 175, 3-{[5-(2-Bicyclo[2.2.2]oct-1-yl-ethyl)-2-cyclohexyl-1H-imidazole-4-carbonyl]-amino}-benzoic Acid] | 2.95 nM |  |
| Cc1ccc(NC(=O)c2nc(C3CCCCC3)[nH]c2CCC23CCC(CC2)CC3)cc1C(=O)O [Example 176, 5-{[5-(2-Bicyclo[2.2.2]oct-1-yl-ethyl)-2-cyclohexyl-1H-imidazole-4-carbonyl]-amino}-2-methyl-benzoic Acid] | 6.61 nM |  |
| Cc1cc(C)c(-c2nc(C(=O)Nc3cccc(C(=O)O)c3)c(CCC34CC5CC(CC(C5)C3)C4)[nH]2)c(C)n1 [Example 182, 3-{[5-(2-Adamantan-1-yl-ethyl)-2-(2,4,6-trimethyl-pyridine-3-yl)-1H-imidazole-4-carbonyl]-amino}-benzoic Acid] | 51.3 nM |  |
| Cc1cc(C)c(-c2nc(C(=O)Nc3ccc(C)c(C(=O)O)c3)c(CCC34CC5CC(CC(C5)C3)C4)[nH]2)c(C)n1 [Example 183, 5-{[5-(2-Adamantan-1-yl-ethyl)-2-(2,4,6-trimethyl-pyridine-3-yl)-1H-imidazole-4-carbonyl]-amino}-2-methyl-benzoic Acid] | 42.7 nM |  |
| Cc1cc(C)c(-c2nc(C(=O)Nc3ccc(F)c(C(=O)O)c3)c(CCC34CC5CC(CC(C5)C3)C4)[nH]2)c(C)n1 [Example 184, 5-{[5-(2-Adamantan-1-yl-ethyl)-2-(2,4,6-trimethyl-pyridine-3-yl)-1H-imidazole-4-carbonyl]-amino}-2-fluoro-benzoic Acid] | 70.8 nM |  |
| COCC(COC)c1nc(C(=O)Nc2cccc(C(=O)O)c2)c(CCC23CC4CC(CC(C4)C2)C3)[nH]1 [Example 189, 3-{[5-(2-Adamantan-1-yl-ethyl)-2-(2-methoxy-1-methoxymethyl-ethyl)-1H-imidazole-4-carbonyl]-amino}-benzoic Acid] | 61.7 nM |  |
| COCC1(c2nc(C(=O)Nc3cccc(C(=O)O)c3)c(CCC34CC5CC(CC(C5)C3)C4)[nH]2)CCCCC1 [Example 203, 3-{[5-(2-Adamantan-1-yl-ethyl)-2-(1-methoxymethyl-cyclohexyl)-1H-imidazole-4-carbonyl]-amino}-benzoic Acid] | 11.7 nM |  |

More lines, main results first:

| Kb | Compound | Gastrin pKb |
| --- | --- | --- |
| 263 nM | CC1(C)C2CC[C@@]1(C)C(c1nc(C(=O)Nc3cccc(C(=O)O)c3)c(CCC34CC5CC(CC(C5)C3)C4)[nH]1)C2 (mixture of isomers) [Example 206, 3-{[5-(2-Adamantan-1-yl-ethyl)-2-[(1S,2RS)-1,7,7-trimethyl-bicyclo[2.2.1]hept-2-yl]-1H-imidazole-4-carbonyl]-amino}-benzoic Acid] |  |
| 871 nM | CC(=O)NC(C(=O)O)c1cccc(NC(=O)c2nc(C3CCCCC3)[nH]c2CCC23CC4CC(CC(C4)C2)C3)c1 (racemic) [Example 264, (±)-Acetylamino-(3-{[5-(2-adamantan-1-yl-ethyl)-2-cyclohexyl-1H-imidazole-4-carbonyl]-amino}-phenyl)-acetic Acid] |  |
| 148 nM | CC(=O)NC(Cc1cccc(NC(=O)c2nc(C3CCCCC3)[nH]c2CCC23CC4CC(CC(C4)C2)C3)c1)C(=O)O (racemic) [Example 265, (±)-2-Acetylamino-3-(3-{[5-(2-adamantan-1-yl-ethyl)-2-cyclohexyl-1H-imidazole-4-carbonyl]-amino}-phenyl)-propionic Acid] |  |
| 5.75 nM | O=C(O)c1cccc(NC(=O)c2nc(C3(CO)CCCCC3)[nH]c2CCC23CC4CC(CC(C4)C2)C3)c1 [Example 204, 3-{[5-(2-Adamantan-1-yl-ethyl)-2-(1-hydroxymethyl-cyclohexyl)-1H-imidazole-4-carbonyl]-amino}-benzoic Acid] |  |
| 69.2 nM | O=C(O)c1cccc(NC(=O)c2nc(C3C4CC5CC(C4)CC3C5)[nH]c2CCC23CC4CC(CC(C4)C2)C3)c1 (stereo not drawn) [Example 207, 3-{[2-Adamantan-2-yl-5-(2-adamantan-1-yl-ethyl)-1H-imidazole-4-carbonyl]-amino}benzoic Acid] |  |
| 3.47 nM | O=C(O)c1cccc(NC(=O)c2nc(C3C4CCCC3CCC4)[nH]c2CCC23CC4CC(CC(C4)C2)C3)c1 (stereo not drawn) [Example 208, 3-([5-(2-Adamantan-1-yl-ethyl)-2-bicyclo[3.3.1]non-9-yl-1H-imidazole-4-carbonyl]-amino}-benzoic Acid] |  |
| 2.45 nM | O=C(O)c1cccc(NC(=O)c2[nH]c(C34CCC(CC3)CC4)nc2CCC23CC4CC(CC(C4)C2)C3)c1 [Example 212, 3-{[5-(2-Adamantan-1-yl-ethyl)-2-bicyclo[2.2.2]oct-1-yl-1H-imidazole-4-carbonyl]-amino}-benzoic Acid] |  |
| 75.9 nM | O=C(O)c1cc(NC(=O)c2nc(C34CCC(CC3)CC4)[nH]c2CCC23CC4CC(CC(C4)C2)C3)ccc1F [Example 213, 5-{[5-(2-Adamantan-1-yl-ethyl)-2-bicyclo[2.2.2]oct-1-yl-1H-imidazole-4-carbonyl]-amino}-2-fluoro-benzoic Acid] |  |
| 10.2 nM | Cn1c(C2CCCCC2)nc(C(=O)Nc2cccc(C(=O)O)c2)c1CCC12CC3CC(CC(C3)C1)C2 [Example 214, 3-{[5-(2-Adamantan-1-yl-ethyl)-2-cyclohexyl-1-methyl-1H-imidazole-4-carbonyl]-amino}-benzoic Acid] |  |
| 363 nM | Cn1c(C2CCCCC2)nc(C(=O)Nc2cccc(CC(=O)O)c2)c1CCC12CC3CC(CC(C3)C1)C2 [Example 215, (3-{[5-(2-Adamantan-1-yl-ethyl)-2-cyclohexyl-1-methyl-1H-imidazole-4-carbonyl]-amino}-phenyl)-acetic Acid] |  |
| 148 nM | Cc1c(NC(=O)c2nc(C3CCCCC3)[nH]c2COC23CC4CC(CC(C4)C2)C3)cccc1C(=O)O [Example 218, 3-{[5-(Adamantan-1-yloxymethyl)-2-cyclohexyl-1H-imidazole-4-carbonyl]-amino}-2-methyl-benzoic Acid] |  |
